Measured values taken from US20260207623A1, “USE OF ESTETROL IN HEPATICALLY IMPAIRED PATIENTS” (ESTETRA SRL, priority 2022, published 2026).

Test system: post-menopausal women
Test: Example 2 dose-finding study: weekly frequency of moderate to severe VMS (absolute and relative change, responders)
Format: in vivo, human
Settings: for Weekly frequency of moderate to severe VMS, relative change (% from baseline), Mean: section B analysis
Excerpt: Enrolment was approximately 18 months. Individual subject participation was up to 27 weeks: up to 6 weeks pre-screening and washout, up to 4 weeks screening and run-in period, up to 91 days (13 weeks) of E4 monohydrate or placebo treatment followed by 2 weeks (14 days) of progestin therapy and a Follow up visit 1 week after completion of progestin therapy in non-hysterectomied subjects only.
To define the minimum effective dose (MED) of the oral dose of E4 by evaluating changes in frequency and in severity of moderate to severe vasomotor symptoms (VMS).
This was a prospective, multicentre, randomised, placebo-controlled, double-blinded, dose-finding study.
Eligible subjects were hysterectomied and non-hysterectomied post-menopausal women aged 40 to 65 years, inclusive, presenting at least 7 moderate to severe hot flushes/day or at least 50 moderate to severe hot flushes/week.
All treatments (Estetrol, hereinafter E4 as monohydrate, [2.5 mg, 5 mg, 10 mg, 15 mg] capsule) were administered once daily (QD) per os for at least 12 consecutive weeks until the last biological assessments (Day 91 maximum) had been performed.
In order to analyse the data recorded in this study, treatment groups have been compared using an ANCOVA (analysis of covariance) with respect to the change in weekly frequency of moderate to severe VMS from baseline to weeks 4 and 12. The ANCOVA model includes treatment (“trt1”) and study centre (“SITEPOOL”) as a fixed effect and baseline (“base”) as a covariate.
VMS frequency was also studied by grouping patients according to their degree of response.

SMILES: C[C@]12CC[C@@H]3c4ccc(O)cc4CC[C@H]3[C@@H]1[C@@H](O)[C@@H](O)[C@@H]2O [E4 monohydrate, estetrol monohydrate]
- Mean change from baseline in weekly frequency of moderate to severe VMS (2.5 mg QD, week 0): 0.00
- Mean relative change (% from baseline) in weekly frequency of moderate to severe VMS (2.5 mg QD, week 0): 0%
- Mean relative change (% from baseline) in weekly frequency of moderate to severe VMS (2.5 mg QD, week 1): −23%
- Mean relative change (% from baseline) in weekly frequency of moderate to severe VMS (2.5 mg QD, week 2): −34%
- Mean relative change (% from baseline) in weekly frequency of moderate to severe VMS (2.5 mg QD, week 3): −44%
- Mean relative change (% from baseline) in weekly frequency of moderate to severe VMS (2.5 mg QD, week 4): −49%
- Mean relative change (% from baseline) in weekly frequency of moderate to severe VMS (2.5 mg QD, week 5): −50%
- Mean relative change (% from baseline) in weekly frequency of moderate to severe VMS (2.5 mg QD, week 6): −54%
- Mean relative change (% from baseline) in weekly frequency of moderate to severe VMS (2.5 mg QD, week 7): −57%
- Mean relative change (% from baseline) in weekly frequency of moderate to severe VMS (2.5 mg QD, week 8): −58%
- Mean relative change (% from baseline) in weekly frequency of moderate to severe VMS (2.5 mg QD, week 9): −61%
- Mean relative change (% from baseline) in weekly frequency of moderate to severe VMS (2.5 mg QD, week 10): −61%
- Mean relative change (% from baseline) in weekly frequency of moderate to severe VMS (2.5 mg QD, week 11): −60%
- Mean relative change (% from baseline) in weekly frequency of moderate to severe VMS (2.5 mg QD, week 12): −61%
- Mean change from baseline in weekly frequency of moderate to severe VMS (5 mg QD, week 0): 0.00
- Mean relative change (% from baseline) in weekly frequency of moderate to severe VMS (5 mg QD, week 0): 0%
- Mean relative change (% from baseline) in weekly frequency of moderate to severe VMS (5 mg QD, week 1): −23%
- Mean relative change (% from baseline) in weekly frequency of moderate to severe VMS (5 mg QD, week 2): −33%
- Mean relative change (% from baseline) in weekly frequency of moderate to severe VMS (5 mg QD, week 3): −38%
- Mean relative change (% from baseline) in weekly frequency of moderate to severe VMS (5 mg QD, week 4): −43%
- Mean relative change (% from baseline) in weekly frequency of moderate to severe VMS (5 mg QD, week 5): −47%
- Mean relative change (% from baseline) in weekly frequency of moderate to severe VMS (5 mg QD, week 6): −57%
- Mean relative change (% from baseline) in weekly frequency of moderate to severe VMS (5 mg QD, week 7): −57%
- Mean relative change (% from baseline) in weekly frequency of moderate to severe VMS (5 mg QD, week 8): −57%
- Mean relative change (% from baseline) in weekly frequency of moderate to severe VMS (5 mg QD, week 9): −59%
- Mean relative change (% from baseline) in weekly frequency of moderate to severe VMS (5 mg QD, week 10): −60%
- Mean relative change (% from baseline) in weekly frequency of moderate to severe VMS (5 mg QD, week 11): −63%
- Mean relative change (% from baseline) in weekly frequency of moderate to severe VMS (5 mg QD, week 12): −62%
- Mean relative change (% from baseline) in weekly frequency of moderate to severe VMS (10 mg QD, week 1): −21%
- Mean relative change (% from baseline) in weekly frequency of moderate to severe VMS (10 mg QD, week 2): −37%
- Mean relative change (% from baseline) in weekly frequency of moderate to severe VMS (10 mg QD, week 3): −48%
- Mean relative change (% from baseline) in weekly frequency of moderate to severe VMS (10 mg QD, week 4): −55%
- Mean relative change (% from baseline) in weekly frequency of moderate to severe VMS (10 mg QD, week 5): −60%
- Mean relative change (% from baseline) in weekly frequency of moderate to severe VMS (10 mg QD, week 6): −65%
- Mean relative change (% from baseline) in weekly frequency of moderate to severe VMS (10 mg QD, week 10): −70%
- Mean relative change (% from baseline) in weekly frequency of moderate to severe VMS (10 mg QD, week 11): −70%
- Mean relative change (% from baseline) in weekly frequency of moderate to severe VMS (10 mg QD, week 12): −72%
- Weekly frequency of moderate to severe VMS, relative change (% from baseline), Mean (10 mg daily, week 0): 0%
- Weekly frequency of moderate to severe VMS, relative change (% from baseline), Mean (10 mg daily, week 1): −21%
- Weekly frequency of moderate to severe VMS, relative change (% from baseline), Mean (10 mg daily, week 2): −37%
- Weekly frequency of moderate to severe VMS, relative change (% from baseline), Mean (10 mg daily, week 3): −48%
- Weekly frequency of moderate to severe VMS, relative change (% from baseline), Mean (10 mg daily, week 4): −55%
- Weekly frequency of moderate to severe VMS, relative change (% from baseline), Mean (10 mg daily, week 5): −60%
- Weekly frequency of moderate to severe VMS, relative change (% from baseline), Mean (10 mg daily, week 6): −65%
- Weekly frequency of moderate to severe VMS, relative change (% from baseline), Mean (10 mg daily, week 7): −66%
- Weekly frequency of moderate to severe VMS, relative change (% from baseline), Mean (10 mg daily, week 8): −68%
- Weekly frequency of moderate to severe VMS, relative change (% from baseline), Mean (10 mg daily, week 9): −69%
- Weekly frequency of moderate to severe VMS, relative change (% from baseline), Mean (10 mg daily, week 10): −70%
- Weekly frequency of moderate to severe VMS, relative change (% from baseline), Mean (10 mg daily, week 11): −70%
- Weekly frequency of moderate to severe VMS, relative change (% from baseline), Mean (10 mg daily, week 12): −72%
- Mean relative change (% from baseline) in weekly frequency of moderate to severe VMS (15 mg QD, week 2): −46%
- Mean relative change (% from baseline) in weekly frequency of moderate to severe VMS (15 mg QD, week 3): −57%
- Mean relative change (% from baseline) in weekly frequency of moderate to severe VMS (15 mg QD, week 4): −67%
- Mean relative change (% from baseline) in weekly frequency of moderate to severe VMS (15 mg QD, week 8): −79%
- Mean relative change (% from baseline) in weekly frequency of moderate to severe VMS (15 mg QD, week 10): −80%
- Mean relative change (% from baseline) in weekly frequency of moderate to severe VMS (15 mg QD, week 11): −82%
- Mean relative change (% from baseline) in weekly frequency of moderate to severe VMS (15 mg QD, week 12): −84%
- Weekly frequency of moderate to severe VMS, relative change (% from baseline), Mean (15 mg daily, week 0): 0%
- Weekly frequency of moderate to severe VMS, relative change (% from baseline), Mean (15 mg daily, week 1): −22%
- Weekly frequency of moderate to severe VMS, relative change (% from baseline), Mean (15 mg daily, week 2): −46%
- Weekly frequency of moderate to severe VMS, relative change (% from baseline), Mean (15 mg daily, week 3): −57%
- Weekly frequency of moderate to severe VMS, relative change (% from baseline), Mean (15 mg daily, week 4): −67%
- Weekly frequency of moderate to severe VMS, relative change (% from baseline), Mean (15 mg daily, week 5): −72%
- Weekly frequency of moderate to severe VMS, relative change (% from baseline), Mean (15 mg daily, week 6): −76%
- Weekly frequency of moderate to severe VMS, relative change (% from baseline), Mean (15 mg daily, week 7): −79%
- Weekly frequency of moderate to severe VMS, relative change (% from baseline), Mean (15 mg daily, week 8): −79%
- Weekly frequency of moderate to severe VMS, relative change (% from baseline), Mean (15 mg daily, week 9): −81%
- Weekly frequency of moderate to severe VMS, relative change (% from baseline), Mean (15 mg daily, week 10): −80%
- Weekly frequency of moderate to severe VMS, relative change (% from baseline), Mean (15 mg daily, week 11): −82%
- Weekly frequency of moderate to severe VMS, relative change (% from baseline), Mean (15 mg daily, week 12): −84%
- efficacy on vasomotor parameters (two lowest doses tested (2.5 mg per day and 5 mg per day)): did not show efficacy
